Assay results reported in ChEMBL document CHEMBL3871285, “NTS2-selective neurotensin mimetics with tetrahydrofuran amino acids” (Bioorg Med Chem, 2017).
*1 amine or outer side, *2 acyl side, *3 side chain or, on linkers, in order; H or OH if unused. Where a SMILES comes first, the peptide text is derived from it. [ ]: non-standard residue; d: D form. X2 = O=C([C@]1(N[*:1])CCO[C@@H]1c1ccc(Br)cc1)[*:2]; X1 = O=C([C@@]1(N[*:1])CCO[C@H]1c1ccc(O)cc1)[*:2]; X3 = O=C([C@]1(N[*:1])CCO[C@@H]1c1ccc(O)cc1)[*:2]

Assays:
[1] = biological target: Neurotensin receptor type 2 (Homo sapiens, UniProt O95665); assay: Displacement of [leucine-3H]NT (8 to 13 residues) from human NTS2 receptor expressed in HEK293 cell membranes after 60 mins by scintillation counting
Chain of Neurotensin receptor type 2 (O95665 whole entry, the tested form may be a part): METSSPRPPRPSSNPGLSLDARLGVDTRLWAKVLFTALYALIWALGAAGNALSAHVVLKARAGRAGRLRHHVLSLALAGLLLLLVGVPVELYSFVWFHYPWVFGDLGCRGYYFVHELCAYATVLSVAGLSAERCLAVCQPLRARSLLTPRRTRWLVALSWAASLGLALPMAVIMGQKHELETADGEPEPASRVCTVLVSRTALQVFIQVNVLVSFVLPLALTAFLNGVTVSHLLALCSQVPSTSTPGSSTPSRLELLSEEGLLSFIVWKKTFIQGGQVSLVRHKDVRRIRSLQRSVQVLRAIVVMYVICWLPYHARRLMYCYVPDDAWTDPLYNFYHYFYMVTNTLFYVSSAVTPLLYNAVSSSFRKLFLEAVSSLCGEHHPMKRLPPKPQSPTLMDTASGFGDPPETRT

[2] = biological target: Neurotensin receptor type 1 (Homo sapiens, UniProt P30989); assay: Displacement of [3H]neurotensin from human NTS1 receptor expressed in CHOK1 cell membranes after 60 mins by scintillation counting; set-up: species or system CHO-K1
Chain of Neurotensin receptor type 1 (P30989 whole entry): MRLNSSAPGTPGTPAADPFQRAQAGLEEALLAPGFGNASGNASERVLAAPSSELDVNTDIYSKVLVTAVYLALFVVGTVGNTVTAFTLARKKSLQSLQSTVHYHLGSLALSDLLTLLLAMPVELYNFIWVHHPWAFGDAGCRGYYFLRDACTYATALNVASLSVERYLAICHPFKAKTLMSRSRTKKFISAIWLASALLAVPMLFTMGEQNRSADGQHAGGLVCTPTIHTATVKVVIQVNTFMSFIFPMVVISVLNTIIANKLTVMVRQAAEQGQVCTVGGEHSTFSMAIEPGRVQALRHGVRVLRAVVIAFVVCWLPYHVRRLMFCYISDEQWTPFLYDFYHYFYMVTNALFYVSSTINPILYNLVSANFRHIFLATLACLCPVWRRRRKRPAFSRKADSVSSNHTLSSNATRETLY

[3] = Selectivity ratio of IC50 for human NTS1 receptor expressed in CHOK1 cell membranes to IC50 for NTS2 receptor expressed in HEK293 cell membranes

| Ki [1] [µM] | Ki [2] [µM] | Compound | Ratio Ki [3] |
| --- | --- | --- | --- |
| 0.873 | 2.17 | CC[C@H](C)[C@H](NC(=O)[C@@H](Cc1ccc(Br)cc1)NC(=O)[C@@H]1CCCN1C(=O)[C@H](CCCCN)NC(=O)[C@@H](N)CCCCN)C(=O)N[C@@H](CC(C)C)C(=O)O | – |
| 49 | 91.5 | CC(C)C[C@H](NC(=O)C1(NC(=O)[C@@H]2CCCN2C(=O)[C@H](CCCNC(=N)N)NC(=O)[C@@H](N)CCCNC(=N)N)CCOC1c1ccc(Br)cc1)C(=O)O (stereo in doubt; 10-1) | – |
| – | 10 | CC[C@H](C)[C@H](NC(=O)[C@]1(NC(=O)[C@@H]2CCCN2C(=O)[C@H](CCCCN)NC(=O)[C@@H](N)CCCNC(=N)N)CCO[C@@H]1c1ccc(Br)cc1)C(=O)N[C@@H](CC(C)C)C(=O)O (H-RKP[X2]IL-OH) | – |
| 0.5 | > 50 | CC(C)C[C@H](NC(=O)CNC(=O)C1(NC(=O)[C@@H]2CCCN2C(=O)[C@H](CCCCN)NC(=O)[C@@H](N)CCCCN)CCOC1c1ccc(Br)cc1)C(=O)O (stereo in doubt; 16-1) | – |
| 0.012 | – | CC[C@H](C)[C@H](NC(=O)[C@]1(NC(=O)[C@@H]2CCCN2C(=O)[C@H](CCCNC(=N)N)NC(=O)[C@@H](N)CCCNC(=N)N)CCO[C@@H]1c1ccc(O)cc1)C(=O)N[C@@H](CC(C)C)C(=O)O | – |
| 27 | 67 | CC(C)C[C@H](NC(=O)C1(NC(=O)[C@@H]2CCCN2C(=O)[C@H](CCCCN)NC(=O)[C@@H](N)CCCCN)CCOC1c1ccc(Br)cc1)C(=O)O (stereo in doubt; 7-1) | – |
| 0.029 | 35 | CC(C)C[C@H](NC(=O)CNC(=O)[C@@]1(NC(=O)[C@@H]2CCCN2C(=O)[C@H](CCCNC(=N)N)NC(=O)[C@@H](N)CCCNC(=N)N)CCO[C@H]1c1ccc(O)cc1)C(=O)O (H-RRP[X1]GL-OH) | >1000 |
| 11 | 92.3 | CC(C)C[C@H](NC(=O)C1(NC(=O)[C@@H]2CCCN2C(=O)[C@H](CCCNC(=N)N)NC(=O)[C@@H](N)CCCCN)CCOC1c1ccc(Br)cc1)C(=O)O (stereo in doubt; 8-2) | – |
| 2.03 | 95.5 | CC(C)C[C@H](NC(=O)C1(NC(=O)[C@@H]2CCCN2C(=O)[C@H](CCCCN)NC(=O)[C@@H](N)CCCCN)CCOC1c1ccc(Br)cc1)C(=O)O (stereo in doubt; 7-2) | – |
| 1.43 | 72.5 | CC(C)C[C@H](NC(=O)C1(NC(=O)[C@@H]2CCCN2C(=O)[C@H](CCCNC(=N)N)NC(=O)[C@@H](N)CCCNC(=N)N)CCOC1c1ccc(Br)cc1)C(=O)O (stereo in doubt; 10-2) | – |
| 0.7 | 20 | CC(C)C[C@H](NC(=O)CNC(=O)[C@]1(NC(=O)[C@@H]2CCCN2C(=O)[C@H](CCCNC(=N)N)NC(=O)[C@@H](N)CCCNC(=N)N)CCO[C@@H]1c1ccc(O)cc1)C(=O)O (H-RRP[X3]GL-OH) | – |
| 0.069 | 0.093 | CC[C@H](C)[C@H](NC(=O)[C@H](Cc1ccc(Br)cc1)NC(=O)[C@@H]1CCCN1C(=O)[C@H](CCCCN)NC(=O)[C@@H](N)CCCCN)C(=O)N[C@@H](CC(C)C)C(=O)O | – |
| – | > 100 | CC(C)C[C@H](NC(=O)C1(NC(=O)[C@@H]2CCCN2C(=O)[C@H](CCCCN)NC(=O)[C@@H](N)CCCNC(=N)N)CCOC1c1ccc(Br)cc1)C(=O)O (stereo in doubt; 9-2) | – |
| 28 | 53 | CC(C)C[C@H](NC(=O)C1(NC(=O)[C@@H]2CCCN2C(=O)[C@H](CCCNC(=N)N)NC(=O)[C@@H](N)CCCCN)CCOC1c1ccc(Br)cc1)C(=O)O (stereo in doubt; 8-1) | – |
| – | 70.5 | CC(C)C[C@H](NC(=O)C1(NC(=O)[C@@H]2CCCN2C(=O)[C@H](CCCCN)NC(=O)[C@@H](N)CCCNC(=N)N)CCOC1c1ccc(Br)cc1)C(=O)O (stereo in doubt; 9-1) | – |
| – | 13 | CC[C@H](C)[C@H](NC(=O)[C@]1(NC(=O)[C@@H]2CCCN2C(=O)[C@H](CCCCN)NC(=O)[C@@H](N)CCCCN)CCO[C@@H]1c1ccc(Br)cc1)C(=O)N[C@@H](CC(C)C)C(=O)O (H-KKP[X2]IL-OH) | – |
| 1.95 | 35 | CC(C)C[C@H](NC(=O)CNC(=O)C1(NC(=O)[C@@H]2CCCN2C(=O)[C@H](CCCCN)NC(=O)[C@@H](N)CCCCN)CCOC1c1ccc(Br)cc1)C(=O)O (stereo in doubt; 16-2) | – |
| 0.615 | – | CC[C@H](C)[C@H](NC(=O)[C@]1(NC(=O)[C@@H]2CCCN2C(=O)[C@H](CCCNC(=N)N)NC(=O)[C@@H](N)CCCNC(=N)N)CCO[C@@H]1c1ccc(Br)cc1)C(=O)N[C@@H](CC(C)C)C(=O)O | – |
| 0.11 | 5 | CC[C@H](C)[C@H](NC(=O)[C@]1(NC(=O)[C@@H]2CCCN2C(=O)[C@H](CCCNC(=N)N)NC(=O)[C@@H](N)CCCCN)CCO[C@@H]1c1ccc(Br)cc1)C(=O)N[C@@H](CC(C)C)C(=O)O (H-KRP[X2]IL-OH) | – |
| 0.012 | – | CC[C@H](C)[C@H](NC(=O)C1(NC(=O)[C@@H]2CCCN2C(=O)[C@H](CCCNC(=N)N)NC(=O)[C@@H](N)CCCNC(=N)N)CCOC1c1ccc(Br)cc1)C(=O)N[C@@H](CC(C)C)C(=O)O (some centres undefined) | – |
